Values quoted from earlier work, collected in patent publication US20250214928A1 (priority 2023, published 2025).

Experiments:
[1] = tested on: kainic acid-induced status epilepticus model; details: mouse study, ref. [5]
[2] = tested on: tumor-specific antigens (CEA, CA 19/9, CA 125, prostate-specific antigen); details: meta-analysis of phase I/II trials, over 400 patients, dose-dependent, ref. [9]

**Q.** With `CNC(=O)[C@@H](NC(=O)[C@H](CC(C)C)[C@H](O)C(=O)NO)C(C)(C)C` [marimastat, (2R,3S)-N-1-((S)-3,3-dimethyl-1-methylamino-1-oxobutan-2-yl)-N-4,3-dihydroxy-2-isobutylsuccinamide] as the molecule, how does the duration of seizures [1] read?
**A.** reduced

**Q.** And the number of seizures [1]?
**A.** reduced

**Q.** What about the “growth indicators of tumor-specific antigens (all four)” value [2] of the same molecule?
**A.** significantly reduced
